Results: US20040115626A1, “Human pgc-1 promoter” (priority 2000, published 2004)

Columns and labels:
[1] = test system: L6 cells; assay: Measurement of mitochondrial enzymatic activity (WST-1 mitochondrial dehydrogenase colorimetric assay) in L6 cells; type: cell-based, rat; settings: for activity at 1 µM / activity at 5 µM / activity at 25 µM: Rattus norvegicus, 24 hours, relative to no compound
Method: Rat myoblast L6 (ATCC, CRL-1458) was maintained Dulbecco's modified Eagle medium containing 10% fetal bovine serum (GIBCO BRL, USA, 11965-092) and cultured in a wet air containing 5% CO2 at 37° C.
For the investigation of mitochondrial enzymatic activity of cells, a reagent WST-1 (DOJINDO, 342-06451) was used, which enabled the measurement of mitochondrial dehydrogenase activity of living cells by colorimetric assay method. Specifically, L6 cells were cultured in a tissue culture dish having a diameter of 10 cm and after reached confluent, the cells were transferred into a 96-well tissue culture dish. At that time, the medium was changed to Dulbecco's modified Eagle medium containing no Phenol Red (GIBCO BRL, USA, 21063-029). […] After the addition of each compound and 24 hours of treatment, the medium containing the compound was sucked and discarded and thereto were added 100 μl of Dulbecco's modified Eagle medium containing no Phenol Red and no fetal bovine serum and 10 μL of PBS containing 5 mM WST-1 and 0.2 mM 1-Methoxy PMS (DOJINDO, 345-04001). After 4 hours of reaction at 37° C., absorbance was measured at a measuring wavelength of 450 nm. In this regard, all the activity measurements were carried out three times per measurement and each experiment was repeated at least twice to confirm the reproducibility.
Tables 2(a) and 2(b) show the results of 9-cis-RETINOIC ACID and the compounds obtained in Example 6, respectively. Each value was expressed by a relative value wherein the absorbance of the sample containing no cell was subtracted as a background from each absorbance and the value in the case of adding no compound was regarded as 1. […] As mentioned above, it was shown that substances stimulating an hPGC-1 promoter activity have an action to activate mitochondrial enzymes.

[2] = test system: hPGC-1 promoter; assay: hPGC-1 promoter luciferase reporter assay in transiently transfected L6 cells; type: cell-based; settings: for activity at 1 µM: 1 μM compound; for activity at 1 µM / activity at 5 µM / activity at 25 µM: reporter vector phPGC1(2.2)Luc, luciferase activity relative to no compound; for activity at 5 µM: 5 μM compound; for activity at 25 µM: 25 μM compound; for promoter activating ability relative to the case of adding no compound: at compound final concentration of 1 μM, 5 μM or 25 μM, phPGC1(2.2)Luc
Method: Various reporter vectors shown in FIG. 1 were transiently transfected into L6 cells. Specifically, L6 cells were cultured in a tissue culture dish having a diameter of 10 cm and at the time when it was reached 50% confluent, 5 μg of the above plasmid and 1.5 μg of a plasmid pCH110 containing β-galactosidase gene controlled by β-actin promoter were used in combination in order to standardize gene transfection efficiency and the plasmids were introduced into the cells using FuGENE™6 (BOEHRINGER MANNHEIM, USA, 1814 443). After 24 hours, the cells were transferred into a 96-well culture dish, followed by additional 6 hours of culture. From the reports until now, since it is known that 9-cis-RETINOIC ACID (one of vitamin A acids) increases the expression of PGC-1 gene derived from mouse in cells (Cell, 92, 829-839 (1998)), 9-cis-RETINOIC ACID (SIGMA, USA, R4643) having a final concentration of 1 μM was added and the mixture was treated for 24 hours. Then, the cells were dissolved with a cell dissolving liquid LCβ (Toyo Ink, Japan) and luciferase activity thereof was measured using a PicaGene Luminescent Kit (Toyo Ink, Japan, 309-04321). By the way, all the activity measurements were carried out three times per measurement and each experiment was repeated at least twice to confirm the reproducibility.
Each reporter activity was standardized by β-galactosidase activity and expressed by a relative value wherein the value in the case of adding no compound was regarded as 1. In L6 cells, hPGC-1 reporter was increased a maximum of about 2.5 times by the treatment with 9-cis-RETINOIC ACID and thus a result consistent with the report that the expression of PGC-1 gene derived from mouse was enhanced by 9-cis-RETINOIC ACID was obtained.
Using the reporter vector phPGC1(2.2)Luc in the method described in Example 5, screening of a compound stimulating an hPGC-1 promoter activity was carried out wherein commercially available compounds were used as test compounds. […] By the way, Compound B, Compound E and Compound G are commercially available as the code number 4K@UH1-646 of INTERBIOSCREEN, as the code number MS0447 of MARLIN and as the code number A1773/0075171 of ZELINSKY, respectively and are 5-(4-fluorobenzylidene)-2,4-thiazolidinedione, 5-(4-bromobenzylidene)-2,4-thiazolidinedione, 2-(3-aminophenyl)-5-benzoyl-(1H)-benzimidazole, respectively.

SMILES	activity at 1 µM [1] [%]	activity at 5 µM [1] [%]	activity at 25 µM [1] [%]	activity at 1 µM [2] [%]	activity at 5 µM [2] [%]	activity at 25 µM [2] [%]	promoter activating ability relative to the case of adding no compound [2]	mitochondrial enzymatic activity (statement in words) ([1]; 24 hours treatment, Dunnett test)	increase of hPGC-1 reporter activity (maximum) ([2]; 1 μM, 24 hours, normalized with β-galactosidase, no compound = 1, maximum over the reporter vectors)	reporter activity ([2]; 1 μM, 24 hours, reporter vector hPGC1(0.1)Luc)	activity enhancement (9-cis-RETINOIC ACID responsibility) of reporter ([2]; 1 μM, 24 hours, reporter vectors hPGC1(0.2)Luc to hPGC1(5.2)Luc)
O=C1NC(=O)C(=Cc2ccc(F)cc2)S1 [Compound B, 5-(4-fluorobenzylidene)-2,4-thiazolidinedione]	94	121	175	160	203	202	more than twice				
CC1=C(/C=C/C(C)=C\C=C\C(C)=C\C(=O)O)C(C)(C)CCC1 [9-cis-RETINOIC ACID, reference compound]								increased mitochondrial enzymatic activity with a significant difference	about 2.5 times	completely lost	strongly observed
O=C1NC(=O)C(=Cc2ccc(Br)cc2)S1 [Compound E, 5-(4-bromobenzylidene)-2,4-thiazolidinedione]	102	141	285	146	208	157	more than twice				
Nc1cccc(-c2nc3cc(C(=O)c4ccccc4)ccc3[nH]2)c1 [Compound G, 2-(3-aminophenyl)-5-benzoyl-(1H)-benzimidazole]	80	102	176	207	175	91	more than twice				
